# Assay results: patent US12384797B2, “Thioeno[3,2-b] pyridin-7-amine compounds for treating familial dysautonomia” (PTC THERAPEUTICS, INC., priority 2019, dated 2025)
# Test system: Elongator complex protein 1 (ELP1, also referred to as IKBKAP)
# Test: IKBKAP-HTRF assay (IKBKAP protein in lysates of FD patient-derived fibroblasts)
# Assay type: cell-based, human
# Details: 48 hours incubation, 7-point concentration curve
# How it was run: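 Sandwich HTRF with two labelled anti-IKAP antibodies (overnight, 4 °C) measured IKBKAP in lysates of FD patient fibroblasts. Cells were exposed to compound for 48 h at 37 °C (7-point curve, 3.16-fold steps, triplicates). EC2x is the dose doubling IKBKAP versus DMSO control; MFI is sample ΔF divided by vehicle ΔF.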
Compound,EC2x for IKBKAP protein expression (concentration producing two times the amount of IKBKAP protein vs DMSO vehicle control),MFI (maximum fold increase in IKBKAP protein abundance relative to the vehicle control)
"Cc1c(C[C@@H](N)CF)sc2c(NCc3ccco3)cc(Cl)nc12 [Compound 81, 2-[(2R)-2-amino-3-fluoropropyl]-5-chloro-N-[(furan-2-yl)methyl]-3-methylthieno[3,2-b]pyridin-7-amine]",***** (≤0.005 μM is indicated by five stars (*****)),***** (>4.9 is indicated by five stars (*****))
"N[C@@H](CF)Cc1sc2c(NCc3ccco3)cc(Cl)nc2c1Cl [Compound 94, 2-[(2R)-2-amino-3-fluoropropyl]-3,5-dichloro-N-[(furan-2-yl)methyl]thieno[3,2-b]pyridin-7-amine]",***** (≤0.005 μM is indicated by five stars (*****)),**** (between >3.9 and ≤4.9 is indicated by four stars (****))
"CSC[C@H](N)Cc1sc2c(NCc3ccco3)cc(Cl)nc2c1Br [Compound 118, 2-[(2R)-2-amino-3-(methylsulfanyl)propyl]-3-bromo-5-chloro-N-[(furan-2-yl)methyl]thieno[3,2-b]pyridin-7-amine]",***** (≤0.005 μM is indicated by five stars (*****)),***** (>4.9 is indicated by five stars (*****))
"Cc1c(C[C@@H](N)[C@H](C)F)sc2c(NCc3cccs3)cc(Cl)nc12 [Compound 126, 2-[(2R,3S)-2-amino-3-fluorobutyl]-5-chloro-3-methyl-N-[(thiophen-2-yl)methyl]thieno[3,2-b]pyridin-7-amine]",***** (≤0.005 μM is indicated by five stars (*****)),***** (>4.9 is indicated by five stars (*****))
"CC[C@H](N)Cc1sc2c(NCc3nccs3)cc(Cl)nc2c1C [Compound 85, 2-[(2S)-2-aminobutyl]-5-chloro-3-methyl-N-[(1,3-thiazol-2-yl)methyl]thieno[3,2-b]pyridin-7-amine]",***** (≤0.005 μM is indicated by five stars (*****)),***** (>4.9 is indicated by five stars (*****))
"C[C@@H](N)c1cc2nc(Cl)cc(NCc3ccco3)c2s1 [Compound 23, 2-[(1R)-1-aminoethyl]-5-chloro-N-[(furan-2-yl)methyl]thieno[3,2-b]pyridin-7-amine]",* (An EC2x>1 μM is indicated by one star (*)),** (between >1.9 and ≤2.9 is indicated by two stars (**))
"N[C@@H](CCF)Cc1sc2c(NCc3nccs3)cc(Cl)nc2c1Cl [Compound 47, 2-[(2S)-2-amino-4-fluorobutyl]-3,5-dichloro-N-[(1,3-thiazol-2-yl)methyl]thieno[3,2-b]pyridin-7-amine]",***** (≤0.005 μM is indicated by five stars (*****)),***** (>4.9 is indicated by five stars (*****))
"C[C@H](N)Cc1sc2c(NCc3cccs3)cc(Cl)nc2c1OC(F)F [Compound 139, 2-[(2S)-2-aminopropyl]-5-chloro-3-(difluoromethoxy)-N-[(thiophen-2-yl)methyl]thieno[3,2-b]pyridin-7-amine]",***** (≤0.005 μM is indicated by five stars (*****)),**** (between >3.9 and ≤4.9 is indicated by four stars (****))
"N#Cc1csc2c(NCc3cccs3)cc(Cl)nc12 [Compound 13, 5-chloro-7-{[(thiophen-2-yl)methyl]amino}thieno[3,2-b]pyridine-3-carbonitrile]",–,***** (>4.9 is indicated by five stars (*****))
"C[C@H](N)C(F)c1sc2c(NCc3cccs3)cc(Cl)nc2c1Cl (stereo partly drawn) [Compound 130, 2-[(2S)-2-amino-1-fluoropropyl]-3,5-dichloro-N-[(thiophen-2-yl)methyl]thieno[3,2-b]pyridin-7-amine]",***** (≤0.005 μM is indicated by five stars (*****)),***** (>4.9 is indicated by five stars (*****))
"COC[C@H](N)Cc1sc2c(NCc3ccco3)cc(Cl)nc2c1Br [Compound 44, 2-[(2R)-2-amino-3-methoxypropyl]-3-bromo-5-chloro-N-[(furan-2-yl)methyl]thieno[3,2-b]pyridin-7-amine]",***** (≤0.005 μM is indicated by five stars (*****)),***** (>4.9 is indicated by five stars (*****))
"Cc1csc2c(NCc3ccco3)cc(Cl)nc12 [Compound 2, 5-chloro-N-[(furan-2-yl)methyl]-3-methylthieno[3,2-b]pyridin-7-amine]",*** (between >0.02 μM and ≤0.5 μM is indicated by three stars (***)),***** (>4.9 is indicated by five stars (*****))
"Cc1c(C(C)(O)CO)sc2c(NCc3ccco3)cc(Cl)nc12 (stereo not shown) [Compound 147, 2-(5-chloro-7-{[(furan-2-yl)methyl]amino}-3-methylthieno[3,2-b]pyridin-2-yl)propane-1,2-diol]",*** (between >0.02 μM and ≤0.5 μM is indicated by three stars (***)),** (between >1.9 and ≤2.9 is indicated by two stars (**))
"Cc1c(C[C@@H](N)CCF)sc2c(NCc3nccs3)cc(Cl)nc12 [Compound 99, 2-[(2S)-2-amino-4-fluorobutyl]-5-chloro-3-methyl-N-[(1,3-thiazol-2-yl)methyl]thieno[3,2-b]pyridin-7-amine]",***** (≤0.005 μM is indicated by five stars (*****)),***** (>4.9 is indicated by five stars (*****))
"Cc1c(C[C@@H](N)C(=O)N(C)C)sc2c(NCc3ccco3)cc(Cl)nc12 [Compound 116, 3-(5-chloro-7-{[(furan-2-yl)methyl]amino}-3-methylthieno[3,2-b]pyridin-2-yl)-N,N-dimethyl-D-alaninamide]",**** (between >0.005 μM and ≤0.02 μM is indicated by four stars (****)),***** (>4.9 is indicated by five stars (*****))
"C=C[C@H](N)Cc1sc2c(NCc3nccs3)cc(Cl)nc2c1Br [Compound 72, 2-[(2R)-2-aminobut-3-en-1-yl]-3-bromo-5-chloro-N-[(1,3-thiazol-2-yl)methyl]thieno[3,2-b]pyridin-7-amine]",***** (≤0.005 μM is indicated by five stars (*****)),***** (>4.9 is indicated by five stars (*****))
